Laboratory results as given in patent US20240228502A1, “2-PHENYLAMINO PYRROLOPYRIMIDINES AS ACK1 INHIBITORS” (H. LEE MOFFITT CANCER CENTER AND RESEARCH INSTITUTE, INC., priority 2021, published 2024).

Assays:
ACK1 [1] = biological target: T1, ACK1 (Homo sapiens, UniProt Q07912); assay: ACK1 inhibition (ACK1 IC50); assay type: biochemical
UKE1 = assay: Cell viability, UKE1; assay type: cell-based
MDA-MB-231 = assay: Cell viability, MDA-MB-231; assay type: cell-based
ACK1 [2] = biological target: T1, ACK1; assay: DSF = Differential Scanning Fluorimetry, thermal shift; assay type: binding
[3] = Homo sapiens, MDA-MB-231, MDA-MB-231

T1 sequence (Q07912 whole entry): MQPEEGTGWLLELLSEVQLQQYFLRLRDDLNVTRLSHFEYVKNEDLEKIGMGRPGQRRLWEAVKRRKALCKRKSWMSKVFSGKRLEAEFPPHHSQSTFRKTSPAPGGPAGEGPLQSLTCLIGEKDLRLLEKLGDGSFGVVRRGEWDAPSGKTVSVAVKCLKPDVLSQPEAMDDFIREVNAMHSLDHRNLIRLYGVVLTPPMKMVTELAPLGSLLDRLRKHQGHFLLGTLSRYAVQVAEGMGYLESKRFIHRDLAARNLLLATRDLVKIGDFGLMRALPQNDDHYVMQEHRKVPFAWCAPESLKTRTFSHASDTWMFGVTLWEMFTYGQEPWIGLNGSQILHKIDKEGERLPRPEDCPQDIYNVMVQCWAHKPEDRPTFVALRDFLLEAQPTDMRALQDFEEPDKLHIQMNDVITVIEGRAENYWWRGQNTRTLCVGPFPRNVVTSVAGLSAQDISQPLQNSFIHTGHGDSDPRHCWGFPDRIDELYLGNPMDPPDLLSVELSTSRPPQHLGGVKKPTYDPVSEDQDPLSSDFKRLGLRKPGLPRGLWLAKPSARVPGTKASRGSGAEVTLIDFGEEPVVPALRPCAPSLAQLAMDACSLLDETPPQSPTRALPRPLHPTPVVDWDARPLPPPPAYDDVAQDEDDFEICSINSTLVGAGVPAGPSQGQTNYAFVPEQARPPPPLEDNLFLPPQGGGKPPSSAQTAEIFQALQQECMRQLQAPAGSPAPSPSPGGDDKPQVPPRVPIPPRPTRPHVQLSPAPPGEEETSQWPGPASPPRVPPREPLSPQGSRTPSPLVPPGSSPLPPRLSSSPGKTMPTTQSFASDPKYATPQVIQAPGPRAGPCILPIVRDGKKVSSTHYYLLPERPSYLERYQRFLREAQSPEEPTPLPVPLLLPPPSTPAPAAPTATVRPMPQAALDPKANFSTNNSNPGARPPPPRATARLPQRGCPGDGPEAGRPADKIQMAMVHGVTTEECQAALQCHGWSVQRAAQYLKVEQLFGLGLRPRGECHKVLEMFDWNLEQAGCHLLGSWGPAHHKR

## Cc1cn(CC2CCCO2)c2nc(Nc3ccc(N4CCN(C)CC4)c(OC(C)C)c3)ncc12 (stereo not shown)
ACK1 [1]
  IC50: < 0.25 µM

## CC(C)Oc1cc(Nc2ncc3ccn(CC4CCOCC4)c3n2)ccc1N1CCN(C)CC1
UKE1; UKE1, UKE1
  EC50: 3.1 µM
ACK1 [1]
  IC50: < 0.25 µM
MDA-MB-231; [3]
  EC50: 3.5 µM

## COc1cc(Nc2ncc3ccn(-c4cccc(NS(=O)(=O)C(C)C)c4)c3n2)ccc1-c1cnn(C)c1
ACK1 [1]
  IC50: < 0.25 µM

## CN1CCN(c2ccc(Nc3ncc4ccn(CC5CCOCC5)c4n3)cc2)CC1
ACK1 [1]
  IC50: < 0.25 µM

## COc1cc(N2CCN(C)CC2)c(F)cc1Nc1ncc2ccn(CCc3ccccc3)c2n1
ACK1 [1]
  IC50: < 0.25 µM

## CC(C)Oc1cc(Nc2ncc3ccn(C[C@H]4CCCO4)c3n2)ccc1N1CCN(C)CC1
UKE1; UKE1, UKE1
  EC50: 1 µM
ACK1 [2]
  DSF (ΔTm (° C.)): 5.3 °C
ACK1 [1]
  IC50: < 0.25 µM
MDA-MB-231; [3]
  EC50: 1.1 µM

## CN1CCN(c2ccc(Nc3ncc4ccn(CC5CCCO5)c4n3)cc2)CC1 (stereo not shown)
ACK1 [1]
  IC50: < 0.25 µM

## CC(C)S(=O)(=O)Nc1ccc(-n2ccc3cnc(Nc4ccc(N5CCN(C)CC5)c(F)c4)nc32)cc1
ACK1 [2]
  DSF (ΔTm (° C.)): 6.1 °C

## CN1CCN(c2ccc(Nc3ncc4ccn(CC5CCCO5)c4n3)cc2OC2CCC2)CC1 (stereo not shown)
UKE1; UKE1
  EC50: 1.5 µM
UKE1; UKE1, UKE1
  EC50: 1.72 µM
ACK1 [1]
  IC50: < 0.25 µM
MDA-MB-231; [3]
  EC50: 1.5 µM
MDA-MB-231; MDA-MB-231
  EC50: 1.71 µM

## CC(C)COc1cc(Nc2ncc3ccn(CC4CCCO4)c3n2)ccc1N1CCN(C)CC1 (stereo not shown)
ACK1 [1]
  IC50: < 0.25 µM

## COc1cc(N2CCN(C)CC2)ccc1Nc1ncc2ccn(CC3CCOCC3)c2n1
ACK1 [1]
  IC50: < 0.25 µM

## CN1CCN(c2ccc(Nc3ncc4ccn(CC5CCCO5)c4n3)cc2OC2CCCC2)CC1 (stereo not shown)
UKE1; UKE1, UKE1
  EC50: 2.1 µM
ACK1 [1]
  IC50: < 0.25 µM
MDA-MB-231; [3]
  EC50: 2.1 µM
MDA-MB-231; MDA-MB-231
  EC50: 1.05 µM

## CC(C)Oc1cc(Nc2ncc3ccn(CC4CCCO4)c3n2)ccc1N1CCN(C)CC1 (stereo not shown)
UKE1; UKE1, UKE1
  EC50: 1.1 µM
ACK1 [1]
  IC50: < 0.25 µM
MDA-MB-231; [3]
  EC50: 2 µM

## COc1cc(N2CCN(C)CC2)c(F)cc1Nc1ncc2ccn(-c3ccc(S(=O)(=O)NC(C)C)cc3)c2n1
ACK1 [2]
  DSF (ΔTm (° C.)): 4.4 °C

## CN1CCN(c2cc(Cl)c(Nc3ncc4ccn(-c5cccc(N6CCCCS6(=O)=O)c5)c4n3)cc2F)CC1
ACK1 [1]
  IC50: < 0.25 µM

## COc1cc(N2CCN(C)CC2)c(F)cc1Nc1ncc2ccn(-c3cccc(N4CCCS4(=O)=O)c3)c2n1
ACK1 [1]
  IC50: < 0.25 µM

## CC(C)S(=O)(=O)Nc1cccc(-n2ccc3cnc(Nc4ccc(N5CCN(C)CC5)c(OCCO)c4)nc32)c1
UKE1; UKE1, UKE1
  EC50: 0.39 µM
ACK1 [2]
  DSF (ΔTm (° C.)): 6.4 °C
ACK1 [1]
  IC50: < 0.25 µM
MDA-MB-231; [3]
  EC50: 0.151 µM

## Cn1cc(-c2ccc(Nc3ncc4ccn(CC5CCOCC5)c4n3)cc2)cn1
ACK1 [1]
  IC50: < 0.25 µM

## COc1cc(N2CCN(C)CC2)ccc1Nc1ncc2ccn(-c3ccc(NS(=O)(=O)C(C)C)cc3)c2n1
ACK1 [2]
  DSF (ΔTm (° C.)): 6.5 °C

## COc1cc(N2CCN(C)CC2)ccc1Nc1ncc2c(F)cn(CC3CCCO3)c2n1 (stereo not shown)
ACK1 [1]
  IC50: < 0.25 µM

## CC(C)Oc1cc(Nc2ncc3ccn(-c4cccc(NS(=O)(=O)C(C)C)c4)c3n2)ccc1N1CCN(C)CC1
UKE1; UKE1, UKE1
  EC50: 0.31 µM
ACK1 [2]
  DSF (ΔTm (° C.)): 5.2 °C
ACK1 [1]
  IC50: < 0.25 µM
MDA-MB-231; [3]
  EC50: 0.164 µM

## COc1ccccc1CCn1ccc2cnc(Nc3cc(F)c(N4CCN(C)CC4)cc3OC)nc21
ACK1 [1]
  IC50: < 0.25 µM

## CN1CCN(c2ccc(Nc3ncc4ccn(CC5CCOCC5)c4n3)cc2F)CC1
ACK1 [1]
  IC50: < 0.25 µM

## CC(C)Oc1cc(Nc2ncc3c(F)cn(CC4CCCO4)c3n2)ccc1C1CCN(C)CC1 (stereo not shown)
ACK1 [1]
  IC50: < 0.25 µM

## CN1CCN(c2cccc(Nc3ncc4ccn(CC5CCOCC5)c4n3)c2)CC1
ACK1 [1]
  IC50: < 0.5 µM

## COc1cc(N2CCN(C)CC2)c(F)cc1Nc1ncc2ccn(CC3CCOCC3)c2n1
UKE1; UKE1, UKE1
  EC50: > 10 µM
ACK1 [1]
  IC50: < 0.25 µM
MDA-MB-231; [3]
  EC50: > 10 µM

## CN1CCN(c2cc(Cl)c(Nc3ncc4ccn(CC5CCCO5)c4n3)cc2F)CC1 (stereo not shown)
ACK1 [1]
  IC50: < 0.25 µM

## Cc1cc(N2CCN(C)CC2)c(F)cc1Nc1ncc2ccn(-c3ccc(S(=O)(=O)NC(C)C)cc3)c2n1
ACK1 [2]
  DSF (ΔTm (° C.)): 7.7 °C

## CC(C)Oc1cc(Nc2ncc3ccn(CCc4ccccc4)c3n2)ccc1N1CCN(C)CC1
UKE1; UKE1, UKE1
  EC50: 1.8 µM
ACK1 [2]
  DSF (ΔTm (° C.)): 4.5 °C
ACK1 [1]
  IC50: < 0.25 µM
MDA-MB-231; [3]
  EC50: 3.42 µM

## CN1CCN(c2ccc(Nc3ncc4ccn(CC5CCOCC5)c4n3)c(OC3CCC3)c2)CC1
ACK1 [1]
  IC50: < 0.25 µM

## COc1cc(N2CCN(C)CC2)c(F)cc1Nc1ncc2ccn(CC3CCCO3)c2n1 (stereo not shown)
ACK1 [1]
  IC50: < 0.25 µM

## COc1cc(N2CCN(C)CC2)c(F)cc1Nc1ncc2ccn(CCc3ccc(F)cc3)c2n1
ACK1 [1]
  IC50: < 0.25 µM

## COc1c(Nc2ncc3ccn(CC4CCOCC4)c3n2)cc(F)c(N2CCN(C)CC2)c1F
ACK1 [1]
  IC50: > 1 µM

## Cc1cn(CC2CCCO2)c2nc(Nc3ccc(-c4cnn(C)c4)c(OC(C)C)c3)ncc12 (stereo not shown)
ACK1 [2]
  DSF (ΔTm (° C.)): 2.1 °C
ACK1 [1]
  IC50: < 0.5 µM

## COc1cc(N2CCN(C)CC2)c(F)cc1Nc1ncc2ccn(-c3ccc(N4CCCS4(=O)=O)cc3)c2n1
UKE1; UKE1, UKE1
  EC50: 1.4 µM
ACK1 [2]
  DSF (ΔTm (° C.)): 5.2 °C
ACK1 [1]
  IC50: < 0.25 µM
MDA-MB-231; [3]
  EC50: 3.94 µM

## CC(C)S(=O)(=O)Nc1ccc(-n2ccc3cnc(Nc4ccc(N5CCN(C)CC5)c(OCCO)c4)nc32)cc1
ACK1 [2]
  DSF (ΔTm (° C.)): 5.3 °C

## CN1CCN(c2ccc(Nc3ncc4ccn(CC5CCCO5)c4n3)cc2OCCO)CC1 (stereo not shown)
UKE1; UKE1
  EC50: 0.71 µM
UKE1; UKE1, UKE1
  EC50: 1.28 µM
ACK1 [2]
  DSF (ΔTm (° C.)): 5.3 °C
ACK1 [1]
  IC50: < 0.25 µM
MDA-MB-231; [3]
  EC50: 0.72 µM
MDA-MB-231; MDA-MB-231
  EC50: 1.28 µM

## CC(C)S(=O)(=O)Nc1cccc(-n2ccc3cnc(Nc4cc(F)c(N5CCN(C)CC5)cc4Cl)nc32)c1
ACK1 [1]
  IC50: < 0.25 µM

## COc1cc(Nc2ncc3ccn(CC4CCCO4)c3n2)ccc1-c1cnn(C)c1 (stereo not shown)
ACK1 [1]
  IC50: < 0.25 µM

## Cn1cc(-c2ccc(Nc3ncc4ccn(CC5CCCO5)c4n3)cc2)cn1 (stereo not shown)
ACK1 [1]
  IC50: < 0.25 µM

## CN1CCN(c2cccc(Nc3ncc4ccn(CC5CCCO5)c4n3)c2)CC1 (stereo not shown)
ACK1 [1]
  IC50: < 0.25 µM

## CC(C)Oc1cc(Nc2ncc3ccn(CCc4ccccc4)c3n2)ccc1-c1cnn(C)c1
ACK1 [1]
  IC50: < 0.75 µM

## COc1cc(N2CCN(C)CC2)ccc1Nc1ncc2ccn(-c3cccc(NS(=O)(=O)C(C)C)c3)c2n1
UKE1; UKE1, UKE1
  EC50: 2.7 µM
ACK1 [2]
  DSF (ΔTm (° C.)): 7.6 °C
ACK1 [1]
  IC50: < 0.25 µM
MDA-MB-231; [3]
  EC50: 5.15 µM

## CN1CCN(c2ccc(Nc3ncc4ccn(CC5CCCO5)c4n3)c(OC3CCC3)c2)CC1 (stereo not shown)
ACK1 [1]
  IC50: < 0.25 µM

## COc1cc(N2CCN(C)CC2)c(F)cc1Nc1ncc2ccn(-c3ccc(NS(=O)(=O)C(C)C)cc3)c2n1
ACK1 [2]
  DSF (ΔTm (° C.)): 9.3 °C

## CN1CCN(c2cc(Cl)c(Nc3ncc4ccn(CC5CCOCC5)c4n3)cc2F)CC1
ACK1 [2]
  DSF (ΔTm (° C.)): 6.4 °C
ACK1 [1]
  IC50: < 0.25 µM

## COc1cc(Nc2ncc3ccn(-c4cccc(NS(=O)(=O)C(C)C)c4)c3n2)ccc1N1CCN(C)CC1
UKE1; UKE1, UKE1
  EC50: 0.11 µM
ACK1 [2]
  DSF (ΔTm (° C.)): 6.4 °C
ACK1 [1]
  IC50: < 0.25 µM
MDA-MB-231; [3]
  EC50: 0.231 µM

## COc1cc(N2CCN(C)CC2)ccc1Nc1ncc2ccn(-c3ccc(S(=O)(=O)NC(C)C)cc3)c2n1
ACK1 [2]
  DSF (ΔTm (° C.)): 8.1 °C

## COc1cc(N2CCN(C)CC2)ccc1Nc1ncc2ccn(CC3CCCO3)c2n1 (stereo not shown)
ACK1 [1]
  IC50: < 0.25 µM

## Cc1cn(CC2CCOCC2)c2nc(Nc3ccc(-c4cnn(C)c4)c(OC(C)C)c3)ncc12
ACK1 [1]
  IC50: < 0.25 µM

## COc1c(Nc2ncc3ccn(-c4ccc(NS(=O)(=O)C(C)C)cc4)c3n2)cc(F)c(N2CCN(C)CC2)c1F
ACK1 [1]
  IC50: < 0.25 µM

## CN1CCN(c2ccc(Nc3ncc4ccn(C[C@H]5CCCO5)c4n3)cc2F)CC1
ACK1 [1]
  IC50: < 0.25 µM

## COc1cc(N2CCN(C)CC2)c(F)cc1Nc1ncc2ccn(C[C@H]3CCCO3)c2n1
ACK1 [1]
  IC50: < 0.25 µM

## Cc1cc(N2CCN(C)CC2)c(F)cc1Nc1ncc2ccn(-c3cccc(N4CCCCS4(=O)=O)c3)c2n1
ACK1 [2]
  DSF (ΔTm (° C.)): 6.2 °C

## CN1CCN(c2ccc(Nc3ncc4ccn(-c5cccc(N6CCCS6(=O)=O)c5)c4n3)cc2F)CC1
UKE1; UKE1, UKE1
  EC50: 0.055 µM
ACK1 [1]
  IC50: < 0.25 µM
MDA-MB-231; [3]
  EC50: 0.84 µM

## CC(C)Oc1cc(Nc2ncc3ccn(-c4cccc(NS(=O)(=O)C(C)C)c4)c3n2)ccc1-c1cnn(C)c1
ACK1 [1]
  IC50: < 0.25 µM

## Cc1cn(CC2CCCO2)c2nc(Nc3ccc(N4CCN(C)CC4)cc3)ncc12 (stereo not shown)
ACK1 [1]
  IC50: < 0.25 µM

## COc1cc(Nc2ncc3c(C)cn(CC4CCOCC4)c3n2)ccc1-c1cnn(C)c1
ACK1 [1]
  IC50: < 0.25 µM

## COc1cc(N2CCN(C)CC2)c(F)cc1Nc1ncc2ccn(CCc3ccccc3Cl)c2n1
ACK1 [1]
  IC50: < 0.25 µM

## CN1CCN(c2ccc(Nc3ncc4ccn(-c5ccc(N6CCCS6(=O)=O)cc5)c4n3)cc2F)CC1
ACK1 [2]
  DSF (ΔTm (° C.)): 5.6 °C

## CC(C)Oc1cc(N2CCN(C)CC2)ccc1Nc1ncc2ccn(CCc3ccccc3)c2n1
ACK1 [1]
  IC50: < 1 µM

## COc1cc(N2CCN(C)CC2)c(F)cc1Nc1ncc2ccn(-c3cccc(N4CCCCS4(=O)=O)c3)c2n1
UKE1; UKE1, UKE1
  EC50: 1.3 µM
ACK1 [1]
  IC50: < 0.25 µM
MDA-MB-231; [3]
  EC50: 3.4 µM

## Cc1cc(N2CCN(C)CC2)c(F)cc1Nc1ncc2ccn(-c3ccc(NS(=O)(=O)C(C)C)cc3)c2n1
ACK1 [2]
  DSF (ΔTm (° C.)): 7.3 °C

## Cc1cn(CC2CCOCC2)c2nc(Nc3ccc(N4CCN(C)CC4)c(OC(C)C)c3)ncc12
ACK1 [1]
  IC50: < 0.25 µM
